Results reported in PubChem BioAssay AID256 (DTP/NCI, 2004).
Where “and” joins values, the source holds several entries; their conditions need not be identical. Equal entries are not always repeated. Toxic doses and inconclusive results are not listed. Rule for the calls: active = survival T/C of 150% or more; inactive = T/C below 125% in these data.

Test system: CD2F1 mice, L1210 leukemia ip, survival T/C
Assay: NCI In Vivo Anticancer Drug Screen. Data for tumor model L1210 Leukemia (intraperitoneal) in CD2F1 (CDF1) mice
Settings: higher = longer survival
Summary of the method: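 Tumor-bearing mice (transplanted tumor) were split into treated and vehicle control groups, and the measured endpoint of each treated group was divided by that of its vehicle controls.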

Measured: T/C

Cc1[nH]c(=O)[nH]c(=O)c1N(CCF)CCCl
inactive: endpoint: mean survival time, dose: 1.8 mg/kg/injection, schedule: Q01DX009 (ip), vehicle: saline 98 % of control | endpoint: mean survival time, dose: 3.0 mg/kg/injection, schedule: Q01DX009 (ip), vehicle: saline 102 % of control | endpoint: mean survival time, dose: 5.0 mg/kg/injection, schedule: Q01DX009 (ip), vehicle: saline 104 % of control | endpoint: mean survival time, dose: 8.0 mg/kg/injection, schedule: Q01DX001 (ip), vehicle: acid diluted with saline 95 % of control and 102 % of control | endpoint: mean survival time, dose: 8.0 mg/kg/injection, schedule: Q01DX001 (ip), vehicle: saline 98 % of control | endpoint: mean survival time, dose: 8.4 mg/kg/injection, schedule: Q01DX009 (ip), vehicle: saline 106 % of control | endpoint: mean survival time, dose: 8.4 mg/kg/injection, schedule: Q04DX003 (ip), vehicle: saline 108 % of control | endpoint: mean survival time, dose: 14.0 mg/kg/injection, schedule: Q01DX009 (ip), vehicle: saline 113 % of control | endpoint: mean survival time, dose: 14.0 mg/kg/injection, schedule: Q04DX003 (ip), vehicle: saline 105 % of control | endpoint: mean survival time, dose: 16.0 mg/kg/injection, schedule: Q01DX001 (ip), vehicle: acid diluted with saline 97 % of control and 100 % of control | endpoint: mean survival time, dose: 16.0 mg/kg/injection, schedule: Q01DX001 (ip), vehicle: saline 94 % of control and 100 % of control | endpoint: mean survival time, dose: 23.0 mg/kg/injection, schedule: Q01DX001 (ip), vehicle: saline 117 % of control | endpoint: mean survival time, dose: 23.0 mg/kg/injection, schedule: Q01DX009 (ip), vehicle: saline 107 % of control | endpoint: mean survival time, dose: 23.0 mg/kg/injection, schedule: Q04DX003 (ip), vehicle: saline 114 % of control | endpoint: mean survival time, dose: 32.0 mg/kg/injection, schedule: Q01DX001 (ip), vehicle: acid diluted with saline 96 % of control and 102 % of control | endpoint: mean survival time, dose: 32.0 mg/kg/injection, schedule: Q01DX001 (ip), vehicle: saline 105 % of control and 109 % of control | endpoint: mean survival time, dose: 39.0 mg/kg/injection, schedule: Q01DX001 (ip), vehicle: saline 117 % of control | endpoint: mean survival time, dose: 64.0 mg/kg/injection, schedule: Q01DX001 (ip), vehicle: acid diluted with saline 107 % of control and 110 % of control | endpoint: mean survival time, dose: 64.0 mg/kg/injection, schedule: Q01DX001 (ip), vehicle: saline 115 % of control and 120 % of control | endpoint: mean survival time, dose: 65.0 mg/kg/injection, schedule: Q01DX001 (ip), vehicle: saline 123 % of control | endpoint: median survival time, dose: 0.5 mg/kg/injection, schedule: Q03HX024 (ip), vehicle: acid diluted with saline 107 % of control | endpoint: median survival time, dose: 1.0 mg/kg/injection, schedule: Q03HX016 (ip), vehicle: acid diluted with saline 98 % of control | endpoint: median survival time, dose: 1.0 mg/kg/injection, schedule: Q03HX024 (ip), vehicle: acid diluted with saline 105 % of control | endpoint: median survival time, dose: 2.0 mg/kg/injection, schedule: Q01DX009 (ip), vehicle: acid diluted with saline 107 % of control | endpoint: median survival time, dose: 2.0 mg/kg/injection, schedule: Q03HX008 (ip), vehicle: acid diluted with saline 96 % of control | endpoint: median survival time, dose: 2.0 mg/kg/injection, schedule: Q03HX016 (ip), vehicle: acid diluted with saline 100 % of control | endpoint: median survival time, dose: 2.0 mg/kg/injection, schedule: Q03HX024 (ip), vehicle: acid diluted with saline 108 % of control | endpoint: median survival time, dose: 2.0 mg/kg/injection, schedule: Q03HX024 (oral), vehicle: acid diluted with saline 100 % of control | endpoint: median survival time, dose: 4.0 mg/kg/injection, schedule: Q01DX009 (ip), vehicle: acid diluted with saline 117 % of control | endpoint: median survival time, dose: 4.0 mg/kg/injection, schedule: Q01DX009 (sc), vehicle: acid diluted with saline 104 % of control | endpoint: median survival time, dose: 4.0 mg/kg/injection, schedule: Q03HX008 (ip), vehicle: acid diluted with saline 96 % of control | endpoint: median survival time, dose: 4.0 mg/kg/injection, schedule: Q03HX016 (ip), vehicle: acid diluted with saline 111 % of control | endpoint: median survival time, dose: 4.0 mg/kg/injection, schedule: Q03HX024 (ip), vehicle: acid diluted with saline 105 % of control | endpoint: median survival time, dose: 4.0 mg/kg/injection, schedule: Q03HX024 (oral), vehicle: acid diluted with saline 100 % of control | endpoint: median survival time, dose: 4.0 mg/kg/injection, schedule: Q04DX003 (ip), vehicle: acid diluted with saline 96 % of control | endpoint: median survival time, dose: 8.0 mg/kg/injection, schedule: Q01DX009 (ip), vehicle: acid diluted with saline 108 % of control | endpoint: median survival time, dose: 8.0 mg/kg/injection, schedule: Q01DX009 (oral), vehicle: acid diluted with saline 100 % of control | endpoint: median survival time, dose: 8.0 mg/kg/injection, schedule: Q01DX009 (sc), vehicle: acid diluted with saline 100 % of control | endpoint: median survival time, dose: 8.0 mg/kg/injection, schedule: Q03HX008 (ip), vehicle: acid diluted with saline 100 % of control | endpoint: median survival time, dose: 8.0 mg/kg/injection, schedule: Q03HX008 (oral), vehicle: acid diluted with saline 106 % of control | endpoint: median survival time, dose: 8.0 mg/kg/injection, schedule: Q03HX016 (ip), vehicle: acid diluted with saline 97 % of control | endpoint: median survival time, dose: 8.0 mg/kg/injection, schedule: Q03HX016 (oral), vehicle: acid diluted with saline 100 % of control | endpoint: median survival time, dose: 8.0 mg/kg/injection, schedule: Q03HX024 (ip), vehicle: acid diluted with saline 108 % of control | endpoint: median survival time, dose: 8.0 mg/kg/injection, schedule: Q03HX024 (oral), vehicle: acid diluted with saline 100 % of control | endpoint: median survival time, dose: 8.0 mg/kg/injection, schedule: Q04DX003 (ip), vehicle: acid diluted with saline 100 % of control | endpoint: median survival time, dose: 8.0 mg/kg/injection, schedule: Q08DX002 (ip), vehicle: acid diluted with saline 100 % of control | endpoint: median survival time, dose: 16.0 mg/kg/injection, schedule: Q01DX001 (ip), vehicle: acid diluted with saline 98 % of control | endpoint: median survival time, dose: 16.0 mg/kg/injection, schedule: Q01DX001 (sc), vehicle: acid diluted with saline 98 % of control | endpoint: median survival time, dose: 16.0 mg/kg/injection, schedule: Q01DX009 (ip), vehicle: acid diluted with saline 120 % of control | endpoint: median survival time, dose: 16.0 mg/kg/injection, schedule: Q01DX009 (oral), vehicle: acid diluted with saline 106 % of control | endpoint: median survival time, dose: 16.0 mg/kg/injection, schedule: Q01DX009 (sc), vehicle: acid diluted with saline 104 % of control | endpoint: median survival time, dose: 16.0 mg/kg/injection, schedule: Q03HX008 (ip), vehicle: acid diluted with saline 96 % of control | endpoint: median survival time, dose: 16.0 mg/kg/injection, schedule: Q03HX008 (oral), vehicle: acid diluted with saline 112 % of control | endpoint: median survival time, dose: 16.0 mg/kg/injection, schedule: Q03HX016 (ip), vehicle: acid diluted with saline 102 % of control | endpoint: median survival time, dose: 16.0 mg/kg/injection, schedule: Q03HX016 (oral), vehicle: acid diluted with saline 112 % of control | endpoint: median survival time, dose: 16.0 mg/kg/injection, schedule: Q03HX024 (oral), vehicle: acid diluted with saline 112 % of control | endpoint: median survival time, dose: 16.0 mg/kg/injection, schedule: Q04DX003 (ip), vehicle: acid diluted with saline 108 % of control | endpoint: median survival time, dose: 16.0 mg/kg/injection, schedule: Q04DX003 (oral), vehicle: acid diluted with saline 106 % of control | endpoint: median survival time, dose: 16.0 mg/kg/injection, schedule: Q08DX002 (ip), vehicle: acid diluted with saline 105 % of control | endpoint: median survival time, dose: 32.0 mg/kg/injection, schedule: Q01DX001 (ip), vehicle: acid diluted with saline 98 % of control | endpoint: median survival time, dose: 32.0 mg/kg/injection, schedule: Q01DX001 (sc), vehicle: acid diluted with saline 100 % of control | endpoint: median survival time, dose: 32.0 mg/kg/injection, schedule: Q01DX009 (oral), vehicle: acid diluted with saline 112 % of control | endpoint: median survival time, dose: 32.0 mg/kg/injection, schedule: Q03HX008 (ip), vehicle: acid diluted with saline 104 % of control | endpoint: median survival time, dose: 32.0 mg/kg/injection, schedule: Q04DX003 (ip), vehicle: acid diluted with saline 108 % of control | endpoint: median survival time, dose: 32.0 mg/kg/injection, schedule: Q04DX003 (oral), vehicle: acid diluted with saline 112 % of control | endpoint: median survival time, dose: 32.0 mg/kg/injection, schedule: Q08DX002 (ip), vehicle: acid diluted with saline 100 % of control | endpoint: median survival time, dose: 64.0 mg/kg/injection, schedule: Q01DX001 (ip), vehicle: acid diluted with saline 98 % of control | endpoint: median survival time, dose: 64.0 mg/kg/injection, schedule: Q01DX001 (oral), vehicle: acid diluted with saline 112 % of control | endpoint: median survival time, dose: 64.0 mg/kg/injection, schedule: Q01DX001 (sc), vehicle: acid diluted with saline 100 % of control | endpoint: median survival time, dose: 64.0 mg/kg/injection, schedule: Q01DX009 (oral), vehicle: acid diluted with saline 112 % of control | endpoint: median survival time, dose: 64.0 mg/kg/injection, schedule: Q04DX003 (ip), vehicle: acid diluted with saline 90 % of control | endpoint: median survival time, dose: 64.0 mg/kg/injection, schedule: Q04DX003 (oral), vehicle: acid diluted with saline 112 % of control | endpoint: median survival time, dose: 64.0 mg/kg/injection, schedule: Q08DX002 (ip), vehicle: acid diluted with saline 98 % of control | endpoint: median survival time, dose: 64.0 mg/kg/injection, schedule: Q08DX002 (oral), vehicle: acid diluted with saline 112 % of control | endpoint: median survival time, dose: 128.0 mg/kg/injection, schedule: Q01DX001 (oral), vehicle: acid diluted with saline 100 % of control | endpoint: median survival time, dose: 128.0 mg/kg/injection, schedule: Q01DX001 (sc), vehicle: acid diluted with saline 100 % of control | endpoint: median survival time, dose: 128.0 mg/kg/injection, schedule: Q04DX003 (oral), vehicle: acid diluted with saline 112 % of control | endpoint: median survival time, dose: 128.0 mg/kg/injection, schedule: Q08DX002 (oral), vehicle: acid diluted with saline 106 % of control | endpoint: median survival time, dose: 256.0 mg/kg/injection, schedule: Q01DX001 (oral), vehicle: acid diluted with saline 100 % of control | endpoint: median survival time, dose: 256.0 mg/kg/injection, schedule: Q01DX001 (sc), vehicle: acid diluted with saline 105 % of control | endpoint: median survival time, dose: 256.0 mg/kg/injection, schedule: Q04DX003 (oral), vehicle: acid diluted with saline 112 % of control | endpoint: median survival time, dose: 256.0 mg/kg/injection, schedule: Q08DX002 (oral), vehicle: acid diluted with saline 100 % of control | endpoint: median survival time, dose: 512.0 mg/kg/injection, schedule: Q01DX001 (oral), vehicle: acid diluted with saline 112 % of control
